Publication PMC4831212 (The Biochemical journal, 2013)

What was measured:
Assay in all cases: FRET lipid mixing of SNARE liposomes
Assay type in all cases: biochemical
Details in all cases: 37°C; 10 µM polyphenol (as in Figure 2)
SNAP-23/Syn4/VAMP2 [1] = target: T1, SNAP-23/Syn4/VAMP2 (Rattus norvegicus, UniProt O70377+P63045+Q08850)
SNAP-23/Syn4/VAMP8 = target: T2, SNAP-23/Syn4/VAMP8 (Rattus norvegicus, UniProt O70377+Q08850+Q9WUF4)
T2 sequence (O70377 1-210): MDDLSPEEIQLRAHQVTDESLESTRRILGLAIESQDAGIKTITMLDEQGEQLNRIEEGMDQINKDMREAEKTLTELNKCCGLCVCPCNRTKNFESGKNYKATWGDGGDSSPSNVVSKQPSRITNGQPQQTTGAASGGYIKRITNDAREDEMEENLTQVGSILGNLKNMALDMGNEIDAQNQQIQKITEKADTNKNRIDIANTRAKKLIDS
T2 sequence (Q08850 1-298): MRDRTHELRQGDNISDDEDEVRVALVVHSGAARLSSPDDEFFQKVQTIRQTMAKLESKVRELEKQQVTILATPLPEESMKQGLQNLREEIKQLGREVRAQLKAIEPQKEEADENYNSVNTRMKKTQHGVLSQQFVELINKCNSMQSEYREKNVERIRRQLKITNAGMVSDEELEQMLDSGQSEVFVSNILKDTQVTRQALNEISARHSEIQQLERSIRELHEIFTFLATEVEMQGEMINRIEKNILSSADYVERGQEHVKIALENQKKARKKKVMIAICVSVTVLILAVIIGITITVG
T2 sequence (Q9WUF4 1-100): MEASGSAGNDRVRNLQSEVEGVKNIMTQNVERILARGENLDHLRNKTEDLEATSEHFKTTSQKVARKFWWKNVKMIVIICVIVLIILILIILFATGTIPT

SNAP-23/Syn4/VAMP2 [2] = target: T1, SNAP-23/Syn4/VAMP2; remark: listed apart in the source

T1 sequence (P63045 2-116, one chain of several): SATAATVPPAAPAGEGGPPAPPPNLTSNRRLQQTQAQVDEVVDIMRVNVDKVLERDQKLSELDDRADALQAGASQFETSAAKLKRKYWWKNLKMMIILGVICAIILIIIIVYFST

| Structure (SMILES) | % inhibition (SNAP-23/Syn4/VAMP2 [1]) | % inhibition (SNAP-23/Syn4/VAMP8) | % inhibition (SNAP-23/Syn4/VAMP2 [2]) |
| --- | --- | --- | --- |
| C[C@@H]1O[C@@H](OC[C@H]2O[C@@H](Oc3c(-c4ccc(O)c(O)c4)oc4cc(O)cc(O)c4c3=O)[C@H](O)[C@@H](O)[C@@H]2O)[C@H](O)[C@H](O)[C@H]1O [RT, rutin] | did not inhibit SNAP-23/Syn4/VAMP8- driven fusion, but did inhibit SNAP-23/Syn4/VAMP2-driven fusion | – | – |
| COc1cc2c(c(OC)c1OC)-c1c(cc3c(c1OC)OCO3)CC(C)C(C)C2 (centres unmarked) [GN, gomisin N] | these polyphenols robustly inhibited SNAP-23/Syn4/VAMP2- driven fusion | – | – |
| Oc1cc(O)c2cc(O)c(-c3cc(O)c(O)c(O)c3)[o+]c2c1 [DL, delphinidin] | – | ~ 60% | – |
| O=c1cc(-c2ccc(O)cc2)oc2cc(O)cc(O)c12 [AP, apigenin] | – | ~ 90% | ~ 40% |
| O=C(O)/C=C/c1ccccc1 [TC, trans-cinnamic acid] | these polyphenols robustly inhibited SNAP-23/Syn4/VAMP2- driven fusion | – | – |
| O=c1c(O)c(-c2cc(O)c(O)c(O)c2)oc2cc(O)cc(O)c12 [MR, myricetin] | – | 75-90% | 75-90% |
